1 compound from US8343475B2, “Small cationic antimicrobial peptides” (priority 2006, dated 2013) can be followed below.

SMILES strings stand for the structures. Converted amounts (≈) assume the structure as drawn. Residues, ends and D or L forms follow the SMILES beside them.

The subject of test [1] is cord blood mononuclear cells (CBMC). Briefly: Adjuvant properties: cytokine/chemokine induction by peptides alone and with CpG oligonucleotides and polyphosphazene P6. In kind it is cell-based, human. The settings on record: peptide alone 20 ug/mL, background subtracted. An excerpt:
(§1) It is well accepted that vaccine immunization is best achieved by co-administration of an adjuvant. The precise mechanism by which these adjuvants work has eluded immunologists but appears to work in part by upregulating elements of innate immunity that smooth the transition to adaptive (antigen-specific) immunity (Bendelac A and R. Medzhitov. 2002. Adjuvants of immunity: Harnessing innate immunity to promote adaptive immunity J. Exp. Med. 195:F19-F23). Within this concept there are several possible avenues by which adjuvants might work including the attraction of immune cells into the site at which a particular antigen is injected, through e.g., upregulation of chemokines, the appropriate activation of cells when they reach that site, which can be caused by local cell or tissue damage releasing endogenous adjuvants or through specific cell activation by the adjuvants, and the compartmentalization of immune responses to the site of immunization (the so-called “depot” effect). […] Therefore we studies the ability of our small host defence peptides to upregulate adjuvant responses in both human PBMC and cord blood mononuclear cells (CBMC) (representing the responses of blood cells from neonates), both alone (Table 10 and 11) and in combination with other proposed adjuvant agents that might work through other mechanisms such as CpG oligodeoxy ribonucleotides (TLR9 agionists that activate cells through interaction with TLR9 and fit into 3 different classes A=molecule 2336, B=10103 and C=2395), and polyphosphazene P6 (which induces a depot effect).

The test system of test [2] is IL8 release by human PBMC. The test is described as follows: Chemokine induction in PBMC (capture ELISA). Format: cell-based. The settings on record: 20 or 100 μg/ml peptide, 24 hours (FIG. 14). As to the method:
FIG. 14. Induction of IL8 release by 7.5×10^5 human PBMC in response to treatment with 20 or 100 μg/ml of different peptides for 24 hours.
(§2) Venous blood (20 ml) from healthy volunteers was collected in Vacutainer® collection tubes containing sodium heparin as an anticoagulant (Becton Dickinson, Mississauga, ON) in accordance with UBC ethical approval and guidelines. Blood was diluted 1:1 with complete RPMI 1640 medium and separated by centrifugation over a Ficoll-Paque® Plus (Amersham Biosciences, Piscataway, N.J., USA) density gradient. White blood cells were isolated from the buffy coat, washed twice in RPMI 1640 complete medium, and the number of peripheral blood mononuclear cells (PBMC) was determined by trypan blue exclusion. PBMC (5×10^5) were seeded into 12-well tissue culture dishes (Falcon; Becton Dickinson) at 0.75 to 1×10^6 cells/ml at 37° C. in 5% CO2. The above conditions were chosen to mimic conditions for circulating blood monocytes entering tissues at the site of infection via extravasation.
(§3) Following incubation of the cells under various treatment regimens, the tissue culture supernatants were centrifuged at 1000×g for 5 min, then at 10,000×g for 2 min to obtain cell-free samples. Supernatants were aliquoted and then stored at −20° C. prior to assay for various chemokines by capture ELISA (eBioscience and BioSource International Inc., CA, USA respectively)
A general note: ELISA stands for enzyme-linked immunosorbent assay.

In test [3] the test system is Pseudomonas aeruginosa PAO1 strain H103. Format: cell-based. The settings on record: PAO1. The procedure, abridged:
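Modified broth microdilution MIC in Mueller Hinton medium, peptides diluted in 0.01% acetic acid/0.2% BSA, polypropylene plates. Inoculum 2-7×10^5 CFU/ml, overnight at 37 °C; MIC is the lowest concentration with no visible growth.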

Test [4] deals with MCP-3 release by human PBMC. The test is described as follows: Chemokine induction in PBMC (capture ELISA). Conditions: background (6) subtracted. In kind it is cell-based. The method in brief:
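Human PBMC from healthy donors (Ficoll-isolated), 7.5×10^5 cells at 0.75–1×10^6 cells/ml, treated with peptides at 20 or 100 μg/ml for 24 h at 37° C, 5% CO2. MCP-3 in cell-free supernatants measured by capture ELISA.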

Test [5] concerns human PBMC. Briefly: Adjuvant properties: cytokine/chemokine induction by peptides alone and with CpG oligonucleotides and polyphosphazene P6. In kind it is cell-based. Conditions: peptide alone 20 ug/mL, background subtracted. The method, then:
as §2, §3, §1

Test [6] has as its system wild-type Salmonella enterica ssp. typhimurium. Format: cell-based. The procedure, abridged: (§4)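 No-growth endpoint after overnight culture at 37° C in Mueller Hinton broth. Inoculum: 2-7×10^5 CFU/ml. Peptide diluent: 0.01% acetic acid, 0.2% BSA.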
The test system of test [7] is Enterococcus faecalis ATCC29212. Format: cell-based. Conditions: ATCC29212. The method in brief:
as §4

Test [8] relates to Staphylococcus aureus ATCC25923. Format: cell-based. Conditions: ATCC25923. The procedure, abridged: as §4
In test [9] the test system is lab isolate of Candida albicans. Format: cell-based. The settings on record: lab isolate of. The procedure, abridged: as §4
Test [10] relates to Escherichia coli UB1005. Format: cell-based. Conditions: UB1005. The method in brief:
as §4

Test [11] has as its system clinical isolate of Staphylococcus epidermidis. In kind it is cell-based. Conditions: clinical isolate of. The procedure, abridged:
as §4

For the compound `CC[C@H](C)[C@H](N)C(=O)N[C@@H](Cc1c[nH]c2ccccc12)C(=O)N[C@H](C(=O)N[C@H](C(=O)N[C@@H](Cc1c[nH]c2ccccc12)C(=O)N[C@@H](CCCNC(=N)N)C(=O)N[C@@H](CCCNC(=N)N)C(N)=O)[C@@H](C)CC)C(C)C` [HH18, IWVIWRR-NH2] (H-IWVIWRR-NH2; N-terminus assumed), in test [1], the “Cytokines induced: Gro-α” value was determined as 55 pg/mL, the “Cytokines induced: IL-6” value amounted to 7 pg/mL, the “Cytokines induced: IL-8” value came to 372 pg/mL and the “Cytokines induced: MCP-1” value was 54 pg/mL. Also, in test [1], the “Cytokines induced: MCP-3” value is -24 pg/mL and the “Cytokines induced: TNF-α” value is -4 pg/mL. Further, the “induction of IL8” value in test [2] was “strongest abilities to induce this chemokine”. Besides, the “MIC P. aerug” value in [3] was determined as 50 µg/mL (≈ 48.7 µM). Moreover, the “Chemokine induction MCP-3” value in test [4] (20 μg/ml peptide) was 32 pg/mL. Also, the “Chemokine induction MCP-3” value in test [4] (100 μg/ml peptide) worked out at 431 pg/mL. In [5], the “Cytokines induced: Gro-α” value was 143 pg/mL, the “Cytokines induced: IL-6” value stood at 180 pg/mL, the “Cytokines induced: IL-8” value came to 2558 pg/mL and the “Cytokines induced: MCP-1” value was 64 pg/mL. In [5], the “Cytokines induced: MCP-3” value was 3 pg/mL and the “Cytokines induced: TNF-α” value worked out at 56 pg/mL. The “MIC S. typhi” value in test [6] was 12.5 µg/mL (≈ 12.2 µM). Besides, the “MIC E. faecalis” value in test [7] came to 25 µg/mL (≈ 24.3 µM). The “MIC S. aureus” value in [8] stood at 25 µg/mL (≈ 24.3 µM). Moreover, in [9], the “MIC C. albicans” value is 25 µg/mL (≈ 24.3 µM). In addition, the “MIC E. coli” value in test [10] was determined as 6 µg/mL (≈ 5.84 µM). Further, the “MIC S. epi.” value in test [11] is 6 µg/mL (≈ 5.84 µM).
